The values below come from US20130101527A1, “METHODS, COMPOUNDS AND PHARMACEUTICAL COMPOSITIONS FOR TREATING NEUROLOGICAL DISORDERS” (priority 2011, published 2013).

For series [1], the target named is T1, saliva-amylase (Homo sapiens, UniProt P0DUB6).
T1 sequence (P0DUB6 16-511): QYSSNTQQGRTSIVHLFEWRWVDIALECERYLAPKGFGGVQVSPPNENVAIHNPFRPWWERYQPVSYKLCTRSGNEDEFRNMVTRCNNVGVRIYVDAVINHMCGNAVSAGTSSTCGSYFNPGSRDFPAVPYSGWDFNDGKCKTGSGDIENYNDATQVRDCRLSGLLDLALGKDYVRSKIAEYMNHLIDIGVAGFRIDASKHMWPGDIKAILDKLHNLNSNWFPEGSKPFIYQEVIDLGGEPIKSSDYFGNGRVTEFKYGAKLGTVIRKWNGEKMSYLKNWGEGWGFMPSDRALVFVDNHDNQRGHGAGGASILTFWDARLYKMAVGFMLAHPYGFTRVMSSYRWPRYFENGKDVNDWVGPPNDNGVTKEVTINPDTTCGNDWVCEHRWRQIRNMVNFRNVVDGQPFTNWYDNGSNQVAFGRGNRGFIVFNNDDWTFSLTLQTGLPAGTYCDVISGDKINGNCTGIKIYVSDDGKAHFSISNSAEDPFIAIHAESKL
As to conditions: cited from earlier work.

The test system of series [2] is patients with essential tremor. As to conditions: cited from earlier work.
The test system of series [3] is harmaline-induced tremor. As to conditions: cited from earlier work.
The subject of series [4] is Spontaneous Brain Activity in Healthy Adults. Nature of the series: MEG recordings of spontaneous activity, spectral analysis and ICA localization before and after self-administration of 1-octanol. It counts as in vivo, human. Here is the method: (§1) The database comprises 29 healthy adults from 25-52 years of age (12 women and 17 men).
Spontaneous activity was recorded using a 275 channel (CTF) MEG. Six 7-min recordings were made with the eyes closed. One recording was made before self-administration of 1-Octanol. The others were made at 15, 30, 60, 90 and 120 min after.
A multi-taper approach, which provides reduced-variance calculations of frequency, was used to generate frequency spectra from each set of recordings. Changes in the power spectrum after octanol was determined by first calculating the mean spectra energy (MSE) in 2 Hz frequency bands starting at 2.5 Hz. Logarithmic transformation was applied to the power data and then the mean spectral energy (MSE) was calculated for each band before and after octanol administration. The difference in MSE before and after octanol was then calculated for each participant and the grand mean calculated (FIG. 3).
(§2) Octanol is a straight chain fatty alcohol with 8 carbon atoms CH3(CH2)7OH, and was formulated in an oral mucosal delivery format with appropriate organoleptic characteristics. It was self-administered at 0.1 mg/kg. Participants were instructed to use the spray as they would a breathe spray.
Independent component analysis (ICA) was carried out on the sensor data using the Infomax EEGLab algorithm. The magnetic field described by the ICs was localized onto a volumetric source space constructed from a population-averaged MRI using a recursive weighted minimum norm algorithm.

The conditions of series [5]: cited from earlier work.
Series [6] relates to T-type (Cav3.1) calcium channels. As to conditions: in vitro; cited from earlier work.
The subject of series [7] is GABAA Receptors. As to conditions: Kurata et al., Mol Pharmacol. 1999, cited from earlier work.
In series [8] the test system is Spontaneous Brain Activity in Healthy Adults. Briefly: MEG recordings of spontaneous activity, spectral analysis and ICA localization before and after self-administration of 1-octanol. The class given is in vivo, human. As to conditions: all subjects, five times after octanol (grand mean, s.e.m), FIG. 2.
The test system of series [9] is healthy adults. Nature of the series: Seven-scale questionnaire before and after octanol administration. The class given is in vivo, human. As to conditions: 0.1 mg/kg, questionnaire before, 5-10 min and 120 min after. The protocol:
as §1, §2
A seven-scale questionnaire was used before and at 5-10 minutes and 120 minutes, respectively, after octanol administration to examine the level of relaxation, concentration, worry, sleepiness, stress, pain and the octanol taste.

Series [10] deals with TCD in an animal model. As to conditions: cited from earlier work.
Where [11] appears, read: example subject with low frequency peaks, FIG. 5.
The mark [12] stands for this setting: healthy adults, 0.1 mg/kg self-administered oral mucosal spray, MEG.

With `OC[C@H]1O[C@@H]2O[C@H]3[C@H](O)[C@@H](O)[C@@H](O[C@H]4[C@H](O)[C@@H](O)[C@@H](O[C@H]5[C@H](O)[C@@H](O)[C@@H](O[C@H]6[C@H](O)[C@@H](O)[C@@H](O[C@H]7[C@H](O)[C@@H](O)[C@@H](O[C@H]8[C@H](O)[C@@H](O)[C@@H](O[C@H]9[C@H](O)[C@@H](O)[C@@H](O[C@H]1[C@H](O)[C@H]2O)O[C@@H]9CO)O[C@@H]8CO)O[C@@H]7CO)O[C@@H]6CO)O[C@@H]5CO)O[C@@H]4CO)O[C@@H]3CO` [γ-CD, γ-cyclodextrin], the “susceptibility to saliva-amylase degradation” value in series [1] is “highly susceptible”.
`CCCCCCCCO` [Example 1-octanol, 1-octanol]: in [2], the “tremor in patients with essential tremor” value is “reduce tremor”. For the same molecule, in [3], the harmaline-induced tremor entry is on record as “prevents”. Moreover, the “number of ICA components in the alpha range” value in series [4] (after octanol administration, FIG. 6) was “increased”. For the same molecule, the “Localization of the alpha rhythms to the posterior part of the brain (ICA)” value in series [4] (before and 90 minutes after octanol, FIG. 4) was “not affected”. For the same molecule, in [4] (setting [11]), the “alpha range peak (8.5-10.4 Hz)” value was “increased” and the “delta range peaks (2.5-4.4 Hz)” value was “reduced”. Also, in [4] (setting [12]), the “abnormal, delta range activity” value is reported as “reducing” and the “normal, alpha range activity” value is “increases”. In [4] (healthy subjects, MEG), the beta range activity entry was “did not promote a significant increase” and the “lower alpha band power” value is listed as “significantly increased”. The “power spectra in the low alpha range” value in series [4] (most of the subjects, FIG. 1) was “increase and broadening”. Moreover, the “power at lower frequencies” value in [4] (most subjects, FIG. 3) was “no change”. Moreover, in series [4] (some subjects, FIG. 7), the low frequency peaks entry is on record as “not affected”. In series [4] (some subjects, MEG), the gamma range activity result is given as “increase” and the “higher theta range activity” value is given as “tendency for potentiating”. For the same molecule, the “ICA components with delta range peaks” value in [4] (two hours after octanol administration, FIG. 6) was “no components”. Moreover, the accepted daily intake in series [5] (as flavoring agent in food and cosmetics, FDA and Council of Europe) is listed as 1 mg/kg. The liver toxicity entry in series [5] (higher dosages) was “associated with liver toxicity”. Besides, in [6], the inferior olivary oscillations entry was “reduces”; the “low threshold calcium currents in thalamic and inferior olivary neurons” value was “reversibly reduces”. For the same molecule, the “low doses at which octanol is a slight allosteric potentiator of GABA” value in series [7] was 1-10 μm. In series [7] (higher dose), the “action on GABA at a higher dose” value is recorded as “allosteric inhibitor”. In [8], the “Difference in Mean Spectral Energy, alpha range” value is “clear increase” and the “Difference in Mean Spectral Energy, delta range” value is “decrease”. Also, the “general, self-reported measures of wellness” value in series [9] is “no effect”. The “effect in TCD in an animal model” value in series [10] is recorded as “effective”.
